According to ChEMBL document CHEMBL4316628, “Bioactivity-guided identification of flavonoids with cholinesterase and β-amyloid peptide aggregation inhibitory effects from the seeds of Millettia pachycarpa” (Bioorg Med Chem Lett, 2019):
Calls of active or inactive are those of the source. The rule behind the calls is not given here.

How the values were obtained:
Acetylcholinesterase [1] = biological target: T1, Acetylcholinesterase (Homo sapiens, UniProt P22303); test: Inhibition of AChE (unknown origin) using acetylthiocholine iodide as substrate by spectrophotometry based Ellman's method
T1 sequence (P22303 whole entry): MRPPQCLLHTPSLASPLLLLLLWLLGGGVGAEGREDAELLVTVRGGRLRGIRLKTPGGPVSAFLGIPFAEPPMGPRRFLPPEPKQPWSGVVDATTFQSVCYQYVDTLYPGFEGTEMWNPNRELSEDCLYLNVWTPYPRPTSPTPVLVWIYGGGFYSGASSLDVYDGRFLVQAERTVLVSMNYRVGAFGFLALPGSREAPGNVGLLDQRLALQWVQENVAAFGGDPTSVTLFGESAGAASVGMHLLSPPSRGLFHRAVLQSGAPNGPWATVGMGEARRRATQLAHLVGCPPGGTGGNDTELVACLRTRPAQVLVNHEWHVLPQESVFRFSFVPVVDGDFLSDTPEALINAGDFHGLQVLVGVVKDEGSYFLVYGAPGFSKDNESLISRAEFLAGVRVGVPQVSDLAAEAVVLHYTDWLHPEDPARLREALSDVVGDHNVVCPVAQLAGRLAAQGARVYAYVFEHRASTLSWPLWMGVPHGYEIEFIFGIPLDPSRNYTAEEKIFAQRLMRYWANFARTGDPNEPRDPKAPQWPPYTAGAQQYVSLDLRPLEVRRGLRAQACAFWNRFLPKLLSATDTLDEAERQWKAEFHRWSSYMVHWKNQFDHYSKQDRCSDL

Cholinesterase [2] = biological target: T2, Cholinesterase (Homo sapiens, UniProt P06276); test: Inhibition of BChE (unknown origin) using butyrylthiocholine iodide as substrate by spectrophotometry based Ellman's method
T2 sequence (P06276 whole entry): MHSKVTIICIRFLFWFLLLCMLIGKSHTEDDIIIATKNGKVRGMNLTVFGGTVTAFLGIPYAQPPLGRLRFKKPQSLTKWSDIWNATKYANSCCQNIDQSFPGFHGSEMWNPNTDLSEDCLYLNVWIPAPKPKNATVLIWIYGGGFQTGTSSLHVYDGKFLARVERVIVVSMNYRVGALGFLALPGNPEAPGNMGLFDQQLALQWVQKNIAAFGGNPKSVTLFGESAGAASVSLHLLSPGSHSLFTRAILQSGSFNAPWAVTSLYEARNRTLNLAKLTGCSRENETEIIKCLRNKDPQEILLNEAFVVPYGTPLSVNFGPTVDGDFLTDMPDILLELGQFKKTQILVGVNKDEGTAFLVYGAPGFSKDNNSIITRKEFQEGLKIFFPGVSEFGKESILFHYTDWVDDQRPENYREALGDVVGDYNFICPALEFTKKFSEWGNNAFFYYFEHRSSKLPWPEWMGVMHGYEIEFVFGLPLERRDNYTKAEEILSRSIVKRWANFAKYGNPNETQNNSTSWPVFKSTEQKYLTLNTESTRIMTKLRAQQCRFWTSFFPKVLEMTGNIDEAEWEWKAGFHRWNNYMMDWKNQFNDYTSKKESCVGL

Cholinesterase [3] = biological target: T2, Cholinesterase; test: Inhibition of BChE (unknown origin) at 20 ug/mL using butyrylthiocholine iodide as substrate by spectrophotometry based Ellman's method
Cholinesterase [4] = biological target: T2, Cholinesterase; conditions: 100 ug/mL
Description: Inhibition of BChE (unknown origin) at 100 ug/mL using butyrylthiocholine iodide as substrate by spectrophotometry based Ellman's method

[5] = biological target: Amyloid-beta precursor protein (Homo sapiens) (UniProt P05067); test: Inhibition of amyloid beta (1 to 42) (unknown origin) self-aggregation at 20 uM incubated for 48 hrs by thioflavin-T fluorescence method
Amyloid-beta precursor protein (Homo sapiens), sequence (P05067 whole entry): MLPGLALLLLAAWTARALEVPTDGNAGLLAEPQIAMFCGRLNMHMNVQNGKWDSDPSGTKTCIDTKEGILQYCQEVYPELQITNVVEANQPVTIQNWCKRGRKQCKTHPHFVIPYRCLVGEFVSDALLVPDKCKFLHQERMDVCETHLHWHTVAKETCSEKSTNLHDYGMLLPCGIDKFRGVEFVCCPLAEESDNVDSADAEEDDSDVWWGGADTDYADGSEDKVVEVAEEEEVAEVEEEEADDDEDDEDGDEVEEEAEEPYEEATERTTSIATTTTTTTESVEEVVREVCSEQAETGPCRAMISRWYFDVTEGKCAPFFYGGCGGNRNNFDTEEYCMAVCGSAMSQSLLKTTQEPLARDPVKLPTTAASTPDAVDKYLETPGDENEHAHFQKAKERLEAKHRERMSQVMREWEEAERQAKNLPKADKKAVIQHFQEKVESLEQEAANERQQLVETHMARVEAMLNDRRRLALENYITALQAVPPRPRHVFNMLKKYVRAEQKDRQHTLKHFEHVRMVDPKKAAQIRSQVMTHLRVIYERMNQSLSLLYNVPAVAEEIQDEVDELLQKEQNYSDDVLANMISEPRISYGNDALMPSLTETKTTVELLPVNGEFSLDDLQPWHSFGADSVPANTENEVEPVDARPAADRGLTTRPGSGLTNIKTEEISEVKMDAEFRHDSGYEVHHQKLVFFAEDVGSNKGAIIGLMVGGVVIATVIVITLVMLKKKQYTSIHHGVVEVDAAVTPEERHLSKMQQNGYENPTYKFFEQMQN

[6] = biological target: Amyloid-beta precursor protein (Homo sapiens) (UniProt P05067); test: Inhibition of amyloid beta (1 to 42) (unknown origin) self-aggregation at 40 uM incubated for 48 hrs by thioflavin-T fluorescence method
Beta-secretase 1 = Beta-secretase 1 (Homo sapiens, UniProt P56817); test: Inhibition of BACE1 (unknown origin) expressed in baculovirus-expression system using Rh-EVNLDAEFK-Quencher substrate by FRET assay
Beta-secretase 1, sequence (P56817 whole entry): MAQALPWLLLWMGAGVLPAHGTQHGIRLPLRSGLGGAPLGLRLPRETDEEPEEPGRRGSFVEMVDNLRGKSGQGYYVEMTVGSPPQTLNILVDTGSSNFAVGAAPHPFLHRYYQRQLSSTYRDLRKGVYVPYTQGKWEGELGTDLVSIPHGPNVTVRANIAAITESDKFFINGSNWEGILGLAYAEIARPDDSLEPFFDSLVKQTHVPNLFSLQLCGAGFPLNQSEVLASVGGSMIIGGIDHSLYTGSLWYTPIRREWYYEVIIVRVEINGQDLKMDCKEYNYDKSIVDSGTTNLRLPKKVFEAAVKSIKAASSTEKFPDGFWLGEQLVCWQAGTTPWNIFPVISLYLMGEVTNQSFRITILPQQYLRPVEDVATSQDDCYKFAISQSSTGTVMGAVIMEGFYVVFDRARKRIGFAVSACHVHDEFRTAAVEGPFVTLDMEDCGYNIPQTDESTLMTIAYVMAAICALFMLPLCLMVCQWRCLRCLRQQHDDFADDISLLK

[7] = biological target: Amyloid-beta precursor protein (Homo sapiens) (UniProt P05067); test: Inhibition of amyloid beta (1 to 42) (unknown origin) self-aggregation at 80 uM incubated for 48 hrs by thioflavin-T fluorescence method
Acetylcholinesterase [8] = biological target: T1, Acetylcholinesterase; test: Binding affinity to AChE (unknown origin) assessed as reduction in intrinsic protein fluorescence at 25 degC by fluorescence spectrophotometry
Cholinesterase [9] = biological target: T2, Cholinesterase; test: Mixed type inhibition of BChE (unknown origin) using butyrylthiocholine iodide as substrate by Ellman's method based Lineweaver-Burk plot analysis
Cholinesterase [10] = biological target: T2, Cholinesterase; test: Binding affinity to BChE (unknown origin) assessed as reduction in intrinsic protein fluorescence at 25 degC by fluorescence spectrophotometry
[11] = biological target: Amyloid-beta precursor protein (Homo sapiens) (UniProt P05067); test: Inhibition of amyloid beta (1 to 42) (unknown origin) self-aggregation incubated for 48 hrs by thioflavin-T fluorescence method
Acetylcholinesterase [12] = biological target: T1, Acetylcholinesterase; test: Competitive type inhibition of AChE (unknown origin) using acetylthiocholine iodide as substrate by Ellman's method based Lineweaver-Burk plot analysis

COc1cc2c(cc1OC)[C@@H]1C(=O)c3ccc4c(c3O[C@@H]1CO2)C=CC(C)(C)O4 [DEGUELIN]
IC50 (Acetylcholinesterase [1]; read-out: IC50): 127 µM
IC50 (Cholinesterase [2]): Not Active
inhibition (Cholinesterase [3]): 14.2%

COc1ccc2c3c1O[C@H]1C[C@@H](O)C=C[C@@]31CCN(C)C2
inhibition (Cholinesterase [4]): 94.6%
inhibition (Cholinesterase [3]): 94.6%

C=C(C)[C@H]1Cc2c(ccc3c2O[C@@H]2COc4cc(OC)c(OC)cc4[C@]2(O)C3=O)O1 [ROTENOLONE]
IC50 (Acetylcholinesterase [1]): Not Active
IC50 (Cholinesterase [2]): Not Active
inhibition (Cholinesterase [3]): 9.87%

COC1=CC(=O)C(OC)(OC)C=C1[C@@]1(O)C(=O)c2ccc3c(c2O[C@@H]1CO)C=CC(C)(C)O3
IC50 (Acetylcholinesterase [1]): Not Active
IC50 (Cholinesterase [2]): Not Active
inhibition (Cholinesterase [3]): 17.1%

COc1ccc(/C=C/C(=O)c2ccc3c(c2O)C=CC(C)(C)O3)cc1
IC50 (Acetylcholinesterase [1]; read-out: IC50): 74.7 µM
IC50 (Cholinesterase [2]; read-out: IC50): 102 µM
inhibition (Cholinesterase [3]): 37%

CC1(C)C=Cc2c(ccc(C(=O)/C=C/c3ccc(O)cc3)c2O)O1
inhibition [5]: 53.7%
inhibition [6]: 65.7%
IC50 (Beta-secretase 1): 9.8 µM
inhibition [7]: 73.3%
Activity (Acetylcholinesterase [8]): Dose-dependent effect
IC50 (Acetylcholinesterase [8]): 29.6 µM
Ki (Cholinesterase [9]): 3.48 µM
Activity (Cholinesterase [10]): Dose-dependent effect
IC50 (Cholinesterase [10]): 2.57 µM
IC50 (Acetylcholinesterase [1]; read-out: IC50): 17.1 µM
IC50 (Cholinesterase [2]; read-out: IC50): 5.68 µM
inhibition [11]: Dose-dependent effect
Ki (Acetylcholinesterase [12]): 7.39 µM
inhibition (Cholinesterase [3]): 86.5%

COc1ccc(C2CC(=O)c3ccc4c(c3O2)C=CC(C)(C)O4)cc1 (centres undefined)
IC50 (Acetylcholinesterase [1]; read-out: IC50): 91.1 µM
IC50 (Cholinesterase [2]; read-out: IC50): 225 µM
inhibition (Cholinesterase [3]): 24.7%

COc1cc(OC)c(-c2coc3c4c(ccc3c2=O)OC(C)(C)C=C4)cc1OC
inhibition [5]: inactive
inhibition [6]: inactive
inhibition [7]: inactive
IC50 (Acetylcholinesterase [1]; read-out: IC50): 122 µM
IC50 (Cholinesterase [2]; read-out: IC50): 21.8 µM
inhibition (Cholinesterase [3]): 68.5%

CC1(C)C=Cc2c(ccc3c2OC(c2ccc(O)cc2)CC3=O)O1 (centres undefined)
inhibition [5]: 50.9%
inhibition [6]: 63.5%
inhibition [7]: 73.5%
Ki (Cholinesterase [9]): 3.73 µM
IC50 (Cholinesterase [10]): 3.57 µM
IC50 (Acetylcholinesterase [1]): Not Active
IC50 (Cholinesterase [2]; read-out: IC50): 11.5 µM
inhibition (Cholinesterase [3]): 91.9%

COc1cc2c(cc1OC)[C@]1(O)C(=O)c3ccc4c(c3O[C@@H]1CO2)C=CC(C)(C)O4 [TEPHROSIN]
IC50 (Acetylcholinesterase [1]; read-out: IC50): 127 µM
IC50 (Cholinesterase [2]): Not Active
inhibition (Cholinesterase [3]): 16.2%

COc1ccc(-c2coc3c4c(ccc3c2=O)OC(C)(C)C=C4)cc1OC
inhibition [5]: inactive
inhibition [6]: inactive
inhibition [7]: inactive
Ki (Cholinesterase [9]): 0.92 µM
IC50 (Cholinesterase [10]): 7.82 µM
IC50 (Acetylcholinesterase [1]; read-out: IC50): 131 µM
IC50 (Cholinesterase [2]; read-out: IC50): 2.34 µM
inhibition (Cholinesterase [3]): 98.2%

COc1cc(/C=C/C(=O)CC(=O)/C=C/c2ccc(O)c(OC)c2)ccc1O
inhibition [5]: Active
inhibition [6]: Active
inhibition [7]: Active
